Reference: article PMC8589421, “Impact of Type II LRRK2 inhibitors on signaling and mitophagy” (Biochemical Journal, 2021)
Read-outs that look alike come from different tables or passages of the source.

What was measured:
[1] = test system: Rab10 pThr73, LRRK2 [R1441C]; experiment: Rab10 Thr73 phospho-immunoblot in LRRK2[R1441C] knock-in MEFs; type: cell-based, mouse; conditions: LRRK2[R1441C] knock-in MEFs, 2 h, read-out: LRRK2 [R1441C] Rab10 pThr73 IC50
Procedure: (§1) Wild-type and homozygous LRRK2 [R1441C] (Jax, stock number: 009346), LRRK2[G2019S] Taconic, (model 13940) and LRRK2 [A2016T] (Jax, stock number: 021828)[7] knock-in MEF cells were isolated from littermate-matched mouse embryos on a C57BL/6J background at day E12.5 as described previously. MEFs were grown in Dulbecco's modified Eagle medium (DMEM GIBCO, #11960-085) containing 10% (by vol) fetal bovine serum (FBS), 2 mM L-glutamine, 100 U/ml penicillin, and […] streptomycin supplemented with non-essential amino acids and 1 mM sodium pyruvate. Human embryonic kidney 293 (HEK293) (#ATCC CRL-1573) and HeLa (#ATCC CCL-2) cells were purchased from American Tissue Culture Collection (ATCC) and cultured in DMEM containing 10% (by vol) FBS, 2 mM L-glutamine, 100 U/ml penicillin, and […] streptomycin. All cells were grown at 37°C, 5% (by vol) CO2 in a humidified atmosphere and regularly tested for mycoplasma contamination.
Inhibitors were dissolved in dimethyl sulfoxide (DMSO) (Sigma, #D2650). The inhibitors were diluted 1000× into cell medium. The equivalent volume of DMSO was added to the minus inhibitor controls. Experiments were performed in six-well plates, 10 cm dishes or 15 cm dishes depending on the amount of cell extract required.
(§2) Cells were lysed in an ice-cold lysis buffer containing 50 mM Tris–HCl, pH 7.4, 1% (by vol) Triton X-100, 10% (by vol) glycerol, 150 mM NaCl, 1 mM sodium orthovanadate, 50 mM NaF, 10 mM 2-glycerophosphate, 5 mM sodium pyrophosphate, 1 µg/ml microcystin-LR, and cOmplete EDTA-free protease inhibitor cocktail (Roche, #11836170001). Lysates were incubated on ice for 30 min and clarified by centrifugation at 20 800×g at 4°C for 20 min. Supernatants were quantified by Bradford assay (Bio-Rad Protein Assay Dye Reagent Concentrate #5000006) and samples prepared in 1× lithium dodecyl sulfate sample buffer final concentration (NuPage LDS Sample buffer 4× Invitrogen, #NP0008). When not deployed immediately, lysates were snap-frozen in liquid nitrogen and stored at −80°C until use. […]

[2] = test system: LRRK2 Ser935 phosphorylation, LRRK2[G2019S]; experiment: LRRK2 Ser935 phospho-immunoblot in LRRK2[G2019S] knock-in MEFs; type: cell-based, mouse; conditions: Figure 4B
Procedure: as §1, with “All cells were grown at 37°C, 5% (by vol) CO2 in a humidified atmosphere and regularly tested for mycoplasma contamination.” left out
as §2, with “Lysates were incubated on ice for 30 min and clarified by centrifugation at 20 800×g at 4°C for 20 min.” left out, “#NP0008).” for “#NP0008). When not deployed immediately, lysates were snap-frozen in liquid nitrogen and stored at −80°C until use.”

In the case of `Cc1ccc(C(=O)Nc2ccc(CN3CCN(C)CC3)c(C(F)(F)F)c2)cc1C#Cc1cnc2[nH]ncc2c1` [GZD-824], the IC50 [1] is reported as 262 nM, the IC50 ([1]; Mus musculus) is reported as 262 nM and the “effect on Ser935 phosphorylation in LRRK2[G2019S] cells” value [2] is reported as “did not impact Ser935 phosphorylation”.
